Source: ChEMBL document CHEMBL4382217 (Bioorg Med Chem, 2018)

Tests used:
[1] = Selectivity index, ratio of GI50 for human A431 cells harboring WT EGFR to GI50 for human NCI-H1975 cells harboring EGFR T790M/L858R double mutant
NCI-H1975 [2] = assay: Antiproliferative activity against human NCI-H1975 cells harboring EGFR T790M/L858R double mutant after 72 hrs by MTS assay; format: functional, cell-based
[3] = Antiproliferative activity against human A431 cells harboring WT EGFR after 72 hrs by MTS assay; format: cell-based, A-431; conditions: human, A431 cells harboring WT EGFR
HCC827 [4] = assay: Antitumor activity against human HCC827 cells harboring EGFR exon-19 del mutant xenografted in castrated nude mouse assessed as tumor growth inhibition at 10 mg/kg, po daily for 14 consecutive days measured on day 15 relative to control; format: functional
Calu-6 = assay: Antiproliferative activity against human Calu6 cells harboring WT EGFR after 72 hrs by MTS assay; format: cell-based; conditions: Calu-6, 72 h
[5] = Half life in po dosed mouse; format: ADME, organism-based; conditions: in vivo
PC-9 [6] = assay: Antiproliferative activity against human PC9 cells harboring EGFR mutant after 72 hrs by MTS assay; format: functional, cell-based; conditions: PC-9, 72 h
[7] = Toxicity in castrated nude mouse xenografted with human PC9 cells assessed as body weight loss at 10 mg/kg, po daily for 14 consecutive days relative to control; format: organism-based; conditions: in vivo
PC-9 [8] = assay: Antitumor activity against human PC9 cells harboring EGFR exon-19 del mutant xenografted in castrated nude mouse assessed as tumor growth inhibition at 10 mg/kg, po daily for 14 consecutive days measured on day 15 relative to control; format: functional
Calu-3 = assay: Antiproliferative activity against human Calu3 cells harboring WT EGFR after 72 hrs by MTS assay; format: cell-based; conditions: Calu-3, 72 h
NCI-H1975 [9] = assay: Antitumor activity against human NCI-H1975 cells harboring EGFR T790M/L858R double mutant xenografted in castrated nude mouse assessed as tumor growth inhibition at 20 mg/kg, po daily for 14 consecutive days measured on day 15 relative to control; format: functional
[10] = Toxicity in castrated nude mouse xenografted with human NCI-H1975 cells assessed as body weight loss at 20 mg/kg, po daily for 14 consecutive days relative to control; format: organism-based; conditions: in vivo
HCC827 [11] = assay: Antiproliferative activity against human HCC827 cells harboring EGFR mutant after 72 hrs by MTS assay; format: functional, cell-based; conditions: HCC827, 72 h
[12] = Toxicity in castrated nude mouse xenografted with human HCC827 cells assessed as body weight loss at 10 mg/kg, po daily for 14 consecutive days relative to control; format: organism-based; conditions: in vivo

| SMILES | RatioGI50 [1] | GI50 (NCI-H1975 [2]; Homo sapiens, NCI-H1975, 72 h) [nM] | GI50 at 72 h [3] [nM] | other results |
| --- | --- | --- | --- | --- |
| C=CC(=O)Nc1cc(Nc2nccc(-c3cn(C)c4cccnc34)n2)c(OC(F)F)cc1N1CCC[C@H]1CN(C)C | 3.9 | 184 | 724 |  |
| C=CC(=O)Nc1cc(Nc2nccc(-c3cn(C)c4cccnc34)n2)c(OC(F)F)cc1N(C)CCN(C)C | 44.1 | 6.7 | 296 |  |
| C=CC(=O)Nc1cc(Nc2nccc(-c3cn(C)c4ccccc34)n2)c(OC)cc1N(C)CCN(C)C [OSIMERTINIB] |  |  |  | TGI (HCC827 [4]): 121%; IC50 (Calu-6): 5860 nM; half-life [5]: […]; IC50 (PC-9 [6]): 160 nM; Activity [7]: 8%; TGI (PC-9 [8]): 106%; IC50 (Calu-3): […]; TGI (NCI-H1975 [9]): 107%; Activity [10]: <= 15%; IC50 (HCC827 [11]): […]; Activity [12]: 8%; GI50 (NCI-H1975 [2]): […]; IC50 (NCI-H1975 [2]; Homo sapiens, NCI-H1975, 72 h): […] |
| C=CC(=O)Nc1cc(Nc2nccc(-c3noc4ccccc34)n2)c(OC)cc1N1CCC[C@H]1CN(C)C | >75.1 | 844 | > 10000 |  |
| C=CC(=O)Nc1cc(Nc2nccc(-c3nn(C)c4ccsc34)n2)c(OC(F)F)cc1N1CCN(C)CC1 | 3.8 | 296 | 1130 |  |
| C=CC(=O)Nc1cc(Nc2nccc(-c3cn(C)c4cccnc34)n2)c(OC(F)F)cc1N1CCN(C)CC1 | 8.7 | 166 | 1440 |  |
| C=CC(=O)Nc1cc(Nc2nccc(-c3noc4ccccc34)n2)c(OC(F)F)cc1N1CCN(C)CC1 | 35.1 | 49 | 1720 |  |
| C=CC(=O)Nc1cc(Nc2nccc(-c3noc4ccccc34)n2)c(OC(F)F)cc1N1CCC[C@H]1CN(C)C | 3.5 | 285 | 1000 |  |
| C=CC(=O)Nc1cc(Nc2nccc(-c3cn(C)c4cccnc34)n2)c(OC)cc1N1CCC[C@H]1CN(C)C | 0.7 | 2880 | 2100 |  |
